Data published in publication PMC8348236, “Improving the Utility of a Dynorphin Peptide Analogue Using Mannosylated Glycoliposomes” (International Journal of Molecular Sciences, 2021).

Key:
[1] = peptide without delivery system; cited from earlier work
From the text: Initially, the ability of DS1 and DS2 to entrap and protect dynantin from proteolytic degradation in human plasma ex vivo was compared (Figure 3A).

KOR [2] = biological target: T1, KOR (Mus musculus, UniProt P33534); test: In vivo striatal dopamine modulation after intranasal administration; details: female BALB/c mice, 2.0 µg dynantin, 20 min after administration, LC/MS, average ± SD of 5 mice
Procedure: The ability of the glycoliposome delivery systems to improve both the delivery and activity of dynantin in the brain was studied in an in vivo mouse model. Female BALB/c mice (5 per group) were intranasally administered dynantin (2.0 µg dose) alone or entrapped in either DS1 or DS2. Mice were sacrificed 20 min later and blood (sera), lungs and brains were collected. […] Striatum tissue was immediately removed and neurotransmitter levels analyzed by LC/MS.
Dynantin (2.0 µg total dose) was administered intranasally to female BALB/c mice (5 per group) either alone or entrapped with DS1 or DS2 (1:5 ratio of peptide: particles). The mice were euthanized 20 min after administration and the lung, brain, and blood (sera) were collected. Brains were immediately dissected on ice to obtain striatum tissue from which dopamine was extracted and its levels analyzed by LC/MS in the presence of 0.1% formic acid (A). […]
For each mouse, blood was placed in sera tubes, which were spun at 10,000 rpm for 5 min and sera collected. […] The amount of dopamine extracted was analyzed via LC/MS (5 µL injections) and quantified using the dopamine: dopamine-D2 peak area ratio and a standard curve that was generated using increasing concentrations of dopamine in the presence of a set concentration of the dopamine-D2 internal standard. […]

KOR [3] = biological target: T1, KOR; test: In vitro dopamine modulation in fresh mouse striatum homogenates; details: mouse (C57BL/6) striatal homogenate, 90 min, 4 °C in the dark, LC/MS, average ± SD, n = 5, PBS control 0.54 ± 0.07
Procedure: The gently homogenized tissue was treated with either PBS or dynantin at 1 and 10 µM concentrations for 90 min, after which dopamine levels were analyzed.
Striatal tissue was collected from the brains of sacrificed mice (n = 15), gently homogenized and then treated with either PBS (60 µL, n = 5) or dynantin in PBS at a concentration of either 1 µM (60 µL, n = 5) or 10 µM (60 µL, n = 5) for 90 min at 4 °C in the dark. Dopamine was extracted and its levels analyzed by LC/MS in the presence of 0.1% formic acid.
Analyses were performed using an Acquity Class H UPLC system with an Acquity QDa detector (Waters Limited, Mississauga, ON, Canada). Separations took place on an Acquity UPLC BEH C18 column, 1.7 µm, 100 mm × 2.1 mm(Waters Limited, Mississauga, ON, Canada), and were achieved using a binary gradient elution (Table 3) of water and acetonitrile (both with 0.1% formic acid, v/v) and a uniform flow rate of 0.4 mL/min. […]
Male C57BL/6 mice (n = 15) were sacrificed by CO2 asphyxiation and cervical dislocation. […] The amount of dopamine extracted was analyzed via LC/MS (5 µL injections) and quantified using the dopamine: dopamine-D2 peak area ratio and a standard curve that was generated using increasing concentrations of dopamine in the presence of a set concentration of the dopamine-D2 internal standard. […]

[4] = female BALB/c mice, intranasal, 2.0 µg, 20 min; average ± SD of 5 mice
in vivo = details: female, BALB/c, mouse, inhaled or intranasal, 2 ug

T1 sequence (P33534 whole entry): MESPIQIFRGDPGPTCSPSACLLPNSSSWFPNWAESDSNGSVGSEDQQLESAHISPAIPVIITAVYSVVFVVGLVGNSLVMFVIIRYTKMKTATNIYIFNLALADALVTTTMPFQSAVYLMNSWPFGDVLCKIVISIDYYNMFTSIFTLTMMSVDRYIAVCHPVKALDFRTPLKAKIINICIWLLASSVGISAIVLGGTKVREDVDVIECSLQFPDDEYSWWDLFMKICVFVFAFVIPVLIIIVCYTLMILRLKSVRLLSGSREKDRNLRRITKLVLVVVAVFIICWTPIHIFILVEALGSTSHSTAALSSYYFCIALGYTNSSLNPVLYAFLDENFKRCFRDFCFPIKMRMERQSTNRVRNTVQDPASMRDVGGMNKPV

CC[C@H](C)[C@H](NC(=O)[C@H](CCCNC(=N)N)NC(=O)[C@H](CCCNC(=N)N)NC(=O)[C@H](CC(C)C)NC(=O)[C@H](Cc1ccccc1)NC(=O)CNC(=O)CNC(=O)[C@@H](C)Cc1c(C)cc(O)cc1C)C(=O)N[C@@H](CCCNC(=N)N)C(=O)N1CCC[C@H]1C(=O)N[C@@H](CCCCN)C(N)=O [Dynantin]
time to rapid and complete degradation in human plasma [1]: ≤ 12 h
striatal dopamine level in vivo (KOR [2]): 0.58 ± 0.05 ng/mg
striatal dopamine level, 1 µM dynantin (KOR [3]; 1 µM in PBS): 0.78 ± 0.10 ng/mg
striatal dopamine level, 10 µM dynantin (KOR [3]; 10 µM in PBS): 0.98 ± 0.09 ng/mg
percentage of total dose recovered, Brain [4]: 8.15 ± 3.06%
percentage of total dose recovered, Lung [4]: 4.93 ± 0.89%
percentage of total dose recovered, Sera [4]: 21.66 ± 3.99%
tissue level at time at 20 min (in vivo; brain (remaining tissue after removal of striatum)): 560 ± 200 ng/g
tissue level at time at 20 min (in vivo; lung): 560 ± 120 ng/g
level at 20 min (in vivo; serum): 1300 ± 160 ng/mL
